Laboratory results: article PMC6628712 (Journal of enzyme inhibition and medicinal chemistry, 2016)
Read-outs that look alike come from different tables or passages of the source.

What was measured:
[1] = total plasma, clinically relevant dose as in column Oral Dose; ref [64]–[73]; cited from earlier work
[2] = molecular target: T1, CYP26A1 (Homo sapiens, UniProt O43174); assay: Inhibition of CYP26A1-catalyzed tazarotenic acid sulfoxide formation; format: biochemical
T1 sequence (O43174 1-497): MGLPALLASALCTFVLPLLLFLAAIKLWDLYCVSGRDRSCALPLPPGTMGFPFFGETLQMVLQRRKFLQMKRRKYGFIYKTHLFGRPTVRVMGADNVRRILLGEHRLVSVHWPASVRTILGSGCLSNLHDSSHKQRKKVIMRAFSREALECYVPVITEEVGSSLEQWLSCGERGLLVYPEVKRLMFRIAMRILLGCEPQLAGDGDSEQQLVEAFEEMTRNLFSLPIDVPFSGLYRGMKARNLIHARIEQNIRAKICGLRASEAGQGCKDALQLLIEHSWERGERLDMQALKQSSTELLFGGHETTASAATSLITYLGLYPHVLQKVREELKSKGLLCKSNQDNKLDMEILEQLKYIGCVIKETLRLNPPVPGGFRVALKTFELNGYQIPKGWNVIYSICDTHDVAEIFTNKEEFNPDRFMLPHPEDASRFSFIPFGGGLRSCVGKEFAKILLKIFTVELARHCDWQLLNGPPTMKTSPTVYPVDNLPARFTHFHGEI

[3] = human, in vivo
[4] = unbound fraction in plasma; ref [64]–[73]; cited from earlier work
[5] = molecular target: T2, CYP26B1 (Homo sapiens, UniProt Q9NR63); assay: Inhibition of CYP26B1-catalyzed tazarotenic acid sulfoxide formation; format: biochemical; settings: recombinant CYP26B1, probe tazarotenic acid sulfoxide formation, ± standard error
T2 sequence (Q9NR63 1-512): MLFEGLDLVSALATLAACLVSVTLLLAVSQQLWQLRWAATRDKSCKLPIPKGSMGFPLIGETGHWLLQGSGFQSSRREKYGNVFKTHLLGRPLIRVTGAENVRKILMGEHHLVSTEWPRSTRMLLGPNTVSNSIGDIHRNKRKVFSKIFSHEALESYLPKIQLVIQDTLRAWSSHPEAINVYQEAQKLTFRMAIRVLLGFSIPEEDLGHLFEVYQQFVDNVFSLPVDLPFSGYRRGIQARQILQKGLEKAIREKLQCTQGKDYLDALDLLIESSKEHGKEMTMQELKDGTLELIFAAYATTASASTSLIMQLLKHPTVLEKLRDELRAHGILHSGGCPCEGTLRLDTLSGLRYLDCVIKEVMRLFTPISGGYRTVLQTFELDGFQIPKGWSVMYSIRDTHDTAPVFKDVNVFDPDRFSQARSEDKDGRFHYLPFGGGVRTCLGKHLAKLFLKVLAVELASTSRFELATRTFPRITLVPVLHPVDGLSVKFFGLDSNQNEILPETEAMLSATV

[6] = molecular target: T3, CYP2C8 (Homo sapiens, UniProt P10632); settings: read-out: CYP2C8 IC50, cited from earlier work
T3 sequence (P10632 1-490): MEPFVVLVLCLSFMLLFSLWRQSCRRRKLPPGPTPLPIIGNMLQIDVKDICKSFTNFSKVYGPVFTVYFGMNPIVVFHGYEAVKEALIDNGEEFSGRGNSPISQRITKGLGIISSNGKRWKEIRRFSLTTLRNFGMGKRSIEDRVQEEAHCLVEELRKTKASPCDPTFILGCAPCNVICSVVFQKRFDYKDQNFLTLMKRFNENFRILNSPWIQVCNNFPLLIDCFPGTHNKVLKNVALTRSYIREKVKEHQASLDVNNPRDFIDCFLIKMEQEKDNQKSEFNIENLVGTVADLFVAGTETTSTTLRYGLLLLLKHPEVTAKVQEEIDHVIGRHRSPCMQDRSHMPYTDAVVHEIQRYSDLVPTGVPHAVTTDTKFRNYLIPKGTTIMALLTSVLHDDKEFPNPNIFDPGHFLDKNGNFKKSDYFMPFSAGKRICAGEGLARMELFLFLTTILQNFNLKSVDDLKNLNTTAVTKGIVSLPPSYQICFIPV

[7] = system: CYP26A1, CYP26B1 or CYP2C8; assay: In vitro stability of candesartan cilexetil; format: in vitro ADME; settings: 1 μM, 5 nM CYP26A1, CYP26B1 or CYP2C8, NADPH, up to 10 minutes; data not shown
[8] = molecular target: T2, CYP26B1; assay: Spectral binding determination, CYP26B1; settings: UV-difference spectra
[9] = patient with acute promyelocytic leukemia, co-administration of oral fluconazole; ref [102]; cited from earlier work
[10] = system: CYP26A1; settings: in vitro; ref [97]; cited from earlier work
[11] = molecular target: T1, CYP26A1; assay: Spectral binding determination, CYP26A1; settings: UV-difference spectra
[12] = read-out: CYP26A1 IC50, tazarotenic acid, recombinant CYP26A1, probe tazarotenic acid sulfoxide formation, ± standard error
[13] = read-out: CYP26B1 IC50, tazarotenic acid
[14] = substrate amodiaquine, ref [51]
[15] = substrate montelukast (HLM), ref [44]
[16] = CYP26A1 IC50, tazarotenic acid, recombinant CYP26A1, probe tazarotenic acid sulfoxide formation, ± standard error

| Cmax,u [3] [nM] | IC50 ([5]; CYP26B1 IC50, tazarotenic acid) [µM] | IC50 [2, 16] [µM] | Compound | Cmax [1] [nM] | IC50 [2, 12] [µM] | fu,plasma [4] | IC50 [5, 13] [µM] | IC50 [6, 14] [µM] | other results |
| --- | --- | --- | --- | --- | --- | --- | --- | --- | --- |
|  |  |  | CC1(C)CCC(C)(C)c2cc(NC(=O)c3ccc(C(=O)O)cc3)ccc21 [AM80] |  | 2.89 ± 0.24 |  | 9.21 ± 0.83 |  |  |
| 92.4 | 7.57 ± 4.93 |  | CCc1oc2ccccc2c1C(=O)c1cc(Br)c(O)c(Br)c1 [Benzbromarone] | 9240 |  | 0.010 |  |  | IC50 [2]: 0.63 ± 0.06 µM; IC50 [6, 15]: 0.38 µM |
|  | 1.6 ± 0.27 |  | C=C(c1ccc(C(=O)O)cc1)c1cc2c(cc1C)C(C)(C)CCC2(C)C [Bexarotene] |  |  |  |  |  | IC50 [2]: 1.31 ± 0.48 µM |
|  |  |  | O=C(O)c1ccc2cc(-c3ccc(O)c(C45CC6CC(CC(C6)C4)C5)c3)ccc2c1 [CD437] |  | 0.01 ± 0.01 |  | 0.14 ± 0.05 |  |  |
|  | 0.27 ± 0.06 |  | CCOc1nc2cccc(C(=O)OC(C)OC(=O)OC3CCCCC3)c2n1Cc1ccc(-c2ccccc2-c2nnn[nH]2)cc1 (stereo not shown) [Candesartan Cilexetil] |  |  |  |  | 0.496 ± 0.19 | Degradation of candesartan cilexetil [7]: Minimal degradation; IC50 [2]: 0.41 ± 0.32 µM; Binding mechanism, CYP26B1 [8]: No binding spectra could be obtained |
| 0.38 | 58.3 | 25.6 ± 25.8 | CCOc1nc2cccc(C(=O)O)c2n1Cc1ccc(-c2ccccc2-c2nnn[nH]2)cc1 [Candesartan] | 270 |  |  |  | 36.2 ± 1.7 |  |
|  |  |  | CC1(C)CCC(C)(C)c2cc(C#Cc3ccc(C(=O)O)cc3)ccc21 [EC23] |  | 1.6 ± 0.74 |  | 3.45 ± 2.8 |  |  |
| 30794 | 19.8 ± 3.21 | 0.7 ± 0.19 | OC(Cn1cncn1)(Cn1cncn1)c1ccc(F)cc1F [Fluconazole] | 34600 |  |  |  |  | Increase of AUC of orally administered retinoic acid [9]: 4 fold; Increase of Cmax of orally administered retinoic acid [9]: 6 fold; IC50 ([6]; substrate amodiaquine, ref [50]): 48.9 µM; Inhibition of CYP26A1-catalyzed 4-hydroxyretinoic acid formation [10]: not be inhibitors |
| 1.80 | 0.16 ± 0.02 | 0.55 ± 0.09 | CCC(C)n1ncn(-c2ccc(N3CCN(c4ccc(OCC5COC(Cn6cncn6)(c6ccc(Cl)cc6Cl)O5)cc4)CC3)cc2)c1=O (stereo not shown) [Itraconazole] | 919 |  |  |  |  | IC50 ([6]; substrate paclitaxel, ref Unpublished Data): 2.16 ± 0.41 µM |
|  |  |  | Clc1cccc(C(c2ccc3[nH]cnc3c2)n2ccnc2)c1 (stereo not shown) [Liarazole] |  |  |  | 0.01 ± 0.01 |  |  |
|  |  |  | CC1(C)CCC(C)(C)c2cc(C3(c4ccc5cc(C(=O)O)ccc5c4)SCCS3)ccc21 [MM11253] |  | 0.02 ± 0.01 |  | 1.25 ± 0.44 |  |  |
| 8.90 | 0.61 ± 0.09 | 0.12 ± 0.02 | CC(C)(O)c1ccccc1CC[C@@H](SCC1(CC(=O)O)CC1)c1cccc(/C=C/c2ccc3ccc(Cl)cc3n2)c1 [Montelukast] | 925 |  |  |  |  |  |
| 38.0 | 8.48 ± 1.19 | 0.93 ± 0.26 | CCc1ccc(CCOc2ccc(CC3SC(=O)NC3=O)cc2)nc1 (stereo not shown) [Pioglitazone] | 4490 |  |  |  | 11.7 ± 4 |  |
| 0.45 | 76.2 ± 148 | 1.92 ± 0.39 | O=c1c(O)c(-c2ccc(O)c(O)c2)oc2cc(O)cc(O)c12 [Quercetin] | 50.9 |  | 0.009 |  |  | Inhibition of CYP26A1-catalyzed 4-hydroxyretinoic acid formation [10]: not be inhibitors |
| 0.50 | 3.28 ± 1.15 | 1.78 ± 0.77 | O=C(c1ccc(OCCN2CCCCC2)cc1)c1c(-c2ccc(O)cc2)sc2cc(O)ccc12 [Raloxifene] | 1.05 |  | 0.050 |  | 2.15 ± 0.9 |  |
| 2.60 | 0.61 ± 0.25 | 7.73 ± 2.69 | CCOc1cc(CC(=O)N[C@@H](CC(C)C)c2ccccc2N2CCCCC2)ccc1C(=O)O [Repaglinide] | 104 |  | 0.026 |  |  | IC50 [6, 15]: 11.1 µM |
| 150 |  |  | CC(C)c1nc(CN(C)C(=O)N[C@H](C(=O)N[C@@H](Cc2ccccc2)C[C@H](O)[C@H](Cc2ccccc2)NC(=O)OCc2cncs2)C(C)C)cs1 [Ritonavir] | 15300 |  |  |  |  |  |
| 3.40 | 8.47 ± 6.64 | 11.9 ± 1.02 | CN(CCOc1ccc(CC2SC(=O)NC2=O)cc1)c1ccccn1 (stereo not shown) [Rosiglitazone] | 1670 |  | 0.002 |  | 10.8 ± 3.1 |  |
|  |  |  | CC1(C)CCC(C)(C)c2cc(C3(c4ccc(C(=O)O)cc4)OCCO3)ccc21 [SR11237] |  | 0.81 ± 0.34 |  | 6.86 ± 0.46 |  |  |
|  |  |  | CCC(CC)C(c1ccc(Nc2nc3ccccc3s2)cc1)n1cncn1 (stereo not shown) [Talarazole] |  | 0.02 ± 0.01 |  | 0.001 ± 0.001 |  |  |
| 6.40 | 14 ± 1.11 | 21.4 ± 20.3 | CC/C(=C(\c1ccccc1)c1ccc(OCCN(C)C)cc1)c1ccccc1 [Tamoxifen] | 323 |  | 0.020 |  | 3.34 ± 1.55 | Inhibition of CYP26A1-catalyzed 4-hydroxyretinoic acid formation [10]: not be inhibitors |
| 3.00 | 0.71 ± 0.23 | 0.06 ± 0.02 | COc1cc(C(=O)NS(=O)(=O)c2ccccc2C)ccc1Cc1cn(C)c2ccc(NC(=O)OC3CCCC3)cc12 [Zafirlukast] | 1120 |  | 0.010 |  | 0.644 ± 0.273 | Selectivity for CYP26A1 (versus CYP26B1) ([2]; ratio of IC50 values, tazarotenic acid probe): 11.8 fold; Binding mechanism, CYP26A1 [11]: No binding spectra could be obtained |

| Compound | Cmax,u [3] [nM] | IC50 ([5]; CYP26B1 IC50, tazarotenic acid) [µM] | IC50 [2, 16] [µM] | Cmax [1] [nM] | IC50 [2, 12] [µM] | fu,plasma [4] | IC50 [5, 13] [µM] | IC50 [6, 14] [µM] | other results |
| --- | --- | --- | --- | --- | --- | --- | --- | --- | --- |
| C#C[C@]1(O)CC[C@H]2[C@@H]3CCc4cc(O)ccc4[C@H]3CC[C@@]21C [17α-Ethynylestradiol] | 0.00085 |  |  | 0.5 | 2.24 ± 1.33 | 0.002 | 6.73 ± 3.77 | 6.54 ± 1.22 |  |
| C[C@@H]1C[C@H]2[C@@H]3CCC4=CC(=O)C=C[C@]4(C)[C@@]3(Cl)[C@@H](O)C[C@]2(C)[C@@]1(O)C(=O)CCl [Mometasone] | 0.0005 |  |  | 0.05 | 0.9 ± 0.08 | 0.010 | 6.81 ± 1.19 | 0.813 ± 0.112 |  |
